± gives the expanded uncertainty stated by the source.
Experiment: molar heat capacity at constant pressure; mn = molality of the nth substance listed, in mol/kg
Settings: 100 kPa, Liquid, Large sample (1 g) DSC

[Cl-].[Na+] [sodium chloride] + O
molar heat capacity at constant pressure [J/K/mol]
Settings | m1 = 0.2038 | m1 = 0.3971 | m1 = 1.032
278.15 K | 75.59 ± 1.2 | 75.32 ± 1.2 | 74.79 ± 1.2
283.15 K | 75.42 ± 1.2 | 75.21 ± 1.2 | 74.42 ± 1.2
288.15 K | 75.27 ± 1.2 | 75.07 ± 1.2 | 74.37 ± 1.2
293.15 K | 75.25 ± 1.2 | 74.95 ± 1.2 | 74.28 ± 1.2
298.15 K | 75.23 ± 1.2 | 74.91 ± 1.2 | 74.26 ± 1.1
303.15 K | 75.22 ± 1.2 | 74.9 ± 1.2 | 74.22 ± 1.1
308.15 K | 75.2 ± 1.2 | 74.87 ± 1.2 | 74.21 ± 1.1
313.15 K | 75.18 ± 1.2 | 74.87 ± 1.2 | 74.2 ± 1.1
318.15 K | 75.19 ± 1.2 | 74.88 ± 1.2 | 74.21 ± 1.1
323.15 K | 75.2 ± 1.2 | 74.96 ± 1.2 | 74.26 ± 1.1
328.15 K | 75.21 ± 1.2 | 74.99 ± 1.2 | 74.27 ± 1.2
333.15 K | 75.25 ± 1.2 | 75.03 ± 1.2 | 74.28 ± 1.2
338.15 K | 75.27 ± 1.2 | 75.11 ± 1.2 | 74.32 ± 1.2
343.15 K | 75.38 ± 1.2 | 75.21 ± 1.2 | 74.34 ± 1.2
348.15 K | 75.47 ± 1.2 | 75.26 ± 1.2 | 74.45 ± 1.2

From the NIST ThermoML archive (doi:10.1016/j.jct.2018.10.027)
